Reference: PubChem BioAssay AID1159560 (GlaxoSmithKline (GSK), 2015)
The source made the active and inactive calls. No rule for the calls is given here.

The compounds below were run on Leishmania donovani growth inhibition (assay: antileishmanial activity against L. donovani parasites (AID 1159560);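 also: parasites exposed to compound for 72 h before the viability read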).
For `NC(=O)c1ccc(-c2cccc(OCCN3CCN(C4CCCCC4)CC3)c2)cc1`, the IC50 was > 50 µM (inactive).
`Cn1nc([N+](=O)[O-])nc1Oc1ccc(C(=O)c2ccccc2)cc1` was tested, and the IC50 was > 50 µM (inactive).
With `N#Cc1cc(-c2ccnc(Nc3cccc(CN4CCOCC4)c3)n2)ccc1NCCN` the IC50 was 4 µM.
For `CN(C)S(=O)(=O)c1cccc(CSc2nnc(-c3ccc4c(c3)OCO4)o2)c1`, the IC50 was 1 µM.
`COc1ccc2ncc(Cl)c(CCN3CC[C@@H](NCc4cc5c(cn4)OCS5)[C@H](O)C3)c2n1` was tested, and the IC50 was 10 µM.
With `O=C(NCCc1csc(-c2ccc(F)cc2)n1)c1ccco1` the IC50 was > 50 µM (inactive).
`CS(=O)(=O)N1CCC(Nc2ncc(Br)c(Nc3cccc(F)c3C(N)=O)n2)CC1` was tested, and the IC50 was 0.1 µM.
`COc1ccc2nccc([C@H](O)CN3CC[C@H](NC(=O)c4ccc(Br)cc4)[C@@H](O)C3)c2n1` was tested, and the IC50 was 3.2 µM.
For `CC1CCCCN1C(=O)NCCc1coc(-c2ccc(F)cc2)n1` (centres undefined), the IC50 was > 50 µM (inactive).
`COc1ccc(Nc2nc(-c3ccccn3)cs2)c(OC)c1` gave an IC50 of 6.3 µM.
For `O=c1cc(NCCCNCc2cc(C(F)(F)F)cs2)[nH]c2ccccc12`, the IC50 was > 50 µM (inactive).
`CS(=O)(=O)c1ccc(Nc2nccc(Nc3n[nH]c4ccc(F)cc34)n2)c(F)c1` was tested, and the IC50 was 13 µM.
`CCCC(=O)N(Cc1ccccn1)c1nc2ccccc2s1` was tested, and the IC50 was 7.9 µM.
With `CS(=O)(=O)c1ccc(CC(=O)Nc2nc(-c3ccc(Cl)s3)cs2)cc1` the IC50 was > 50 µM (inactive).
Compound `CC(C)COC(=O)Nc1ccc(N2CCC(CNS(=O)(=O)c3ccccc3)CC2)c(F)c1` has an IC50 of 4 µM.
With `NS(=O)(=O)c1ccc(Nc2ncc3cccc(OC4CCNCC4)c3n2)cc1` the IC50 was 40 µM.
`O=C(Nc1ccc(-c2nc3ccccc3c(=O)[nH]2)cc1)c1cccs1` was tested, and the IC50 was > 50 µM (inactive).
In the case of `O=c1[nH]ccc2ccc(-c3ccncc3)cc12`, the IC50 is reported as > 50 µM (inactive).
For `CN1CCC(N(C)c2nccc(N3CCN(C(=O)c4cccc(-c5cccnc5)c4)CC3)n2)CC1`, the IC50 was > 50 µM (inactive).
`CCOC(=O)c1cn[nH]c1S(=O)(=O)N1CCC1c1ccccc1` (centres undefined) was tested, and the IC50 was > 50 µM (inactive).
`O=C1CCCCCC1(Cc1cnc[nH]1)c1ccc(Cl)cc1Cl` (centres undefined) was tested, and the IC50 was > 50 µM (inactive).
In the case of `CCc1cc(C(=O)Nc2nccn2-c2ccccc2)cs1`, the IC50 is reported as 6.3 µM.
For `CN(Cc1nc2c(C(=O)N3CCN(Cc4ccccc4)CC3)cccc2[nH]1)C1CCCc2cccnc21` (centres undefined), the IC50 was 5 µM.
For `CCOc1ccc(CN(C)Cc2nc(N)nc(Nc3ccc(C)cc3)n2)cc1`, the IC50 was 32 µM.
`CCC(c1ccc(F)cc1)n1cncc1-c1cnn(C)c1` (centres undefined) was tested, and the IC50 was > 50 µM (inactive).
With `CCc1ccccc1[C@@H](C)NC(=O)c1cnc2c(cnn2CC)c1NC1CCN(C(N)=O)CC1` the IC50 was > 50 µM (inactive).
`CC(=O)Nc1ccc(-c2ccnc(Nc3cccc(C#N)c3)n2)cc1` was tested, and the IC50 was 40 µM.
For `Cc1cc(=O)n2nc(Oc3ccc(C#N)cc3Cl)sc2n1`, the IC50 was 13 µM.
For `COc1cc(-c2nc(N3CCOCC3)sc2-c2ccnc(NC3CCOCC3)n2)ccc1Cl`, the IC50 was > 50 µM (inactive).
For `CCOc1ccc(N(C)S(=O)(=O)c2ccc3[nH]cc(C(=O)NC4CCCC4)c(=O)c3c2)cc1`, the IC50 was > 50 µM (inactive).
Work on `CCC(=O)N1N=C(c2ccc3c(c2)CCCC3)Sc2c1ncn2C(=O)CC` yielded an IC50 of 25 µM.
`CCn1c(NC(=O)Cc2ccc(F)cc2)nc2ccccc21` gave an IC50 of 10 µM.
Work on `COc1ccc(-c2ccc3nnc(-c4ccc(O)c(OC)c4)n3c2)cn1` yielded an IC50 of 4 µM.
With `O=S(=O)(NCC(c1cccnc1)N1CCN(c2ccc(F)cc2)CC1)c1cccs1` (centres undefined) the IC50 was > 50 µM (inactive).
In the case of `COc1cccc(CN(C)Cc2nc(N)c3c(C)c(C)sc3n2)c1`, the IC50 is reported as 32 µM.
For `Cc1ccc(NC(=O)C(C)n2nc([N+](=O)[O-])c(Br)c2C)cc1Cl` (centres undefined), the IC50 was > 50 µM (inactive).
In the case of `CCOc1cc(NCCCN2CCN(C)CC2)c2ncccc2c1`, the IC50 is reported as 40 µM.
`Clc1ccc(CN2CCN(C3=NCCN3)CC2)cc1Cl` was tested, and the IC50 was > 50 µM (inactive).
`Cc1cc(-c2cccc3ccccc23)nc2nc(N)nc(N)c12` was tested, and the IC50 was 2 µM.
Compound `O=C(c1cc2cc(Cl)ccc2[nH]1)N1CCCCC1c1cccnc1` (centres undefined) has an IC50 of 50 µM.
With `CS(=O)(=O)c1cccc(-c2cnc(N)c3c(-c4ccc(CO)cc4)csc23)c1` the IC50 was 40 µM.
`Cc1ccc(C)c(OC2CCN(C(=O)C(C)n3ccnc3)CC2)c1` (centres undefined) was tested, and the IC50 was 2.5 µM.
`COc1ccc(NC(=O)c2ccc(NC(=O)CN(c3ccccc3C)S(C)(=O)=O)cc2)cc1` was tested, and the IC50 was > 50 µM (inactive).
`CN(Cc1ccc(F)cc1)c1ccc(OCC(=O)N2CCCCC2c2cccnc2)nn1` (centres undefined) showed an IC50 of 16 µM.
`Cc1nc(-c2ccncc2)ncc1C(C)NC(=O)c1ccc(Cl)s1` (centres undefined) was tested, and the IC50 was > 50 µM (inactive).
Compound `CN(CC1CCCO1)S(=O)(=O)c1ccc(C(=O)Nc2nc(-c3ccccn3)cs2)cc1` (centres undefined) has an IC50 of 1.3 µM.
For `CC(CNS(=O)(=O)c1ccc(OC(F)F)cc1)c1ccc(NC(=O)c2ccncc2)cc1` (centres undefined), the IC50 was > 50 µM (inactive).
For `O=C(NC1CCN(C2Cc3ccc(NS(=O)(=O)c4cc(F)cc(F)c4)cc3C2)CC1)C1CC1` (centres undefined), the IC50 was 25 µM.
Work on `CN(Cc1nc2ccc(C(=O)NCC3CCCCC3)cc2[nH]1)C1CCCc2cccnc21` (centres undefined) yielded an IC50 of 3.2 µM.
In the case of `O=C(N1CCc2ccccc2CC1)C1(C(=O)N2CCC(n3c(=O)[nH]c4ncccc43)CC2)CC1`, the IC50 is reported as > 50 µM (inactive).
With `Cc1nn(-c2nc3ccccc3[nH]2)c2c1C(c1ccc(O)cc1)CC(=O)N2` (centres undefined) the IC50 was 0.79 µM.
`Cc1cc(C#N)c([N+](=O)[O-])cc1Br` gave an IC50 of 25 µM.
With `N#Cc1cccc(CNc2ccc(-c3cnn(CC4CC4)c(=O)c3C#N)cc2)c1` the IC50 was 25 µM.
`Cc1nn(-c2nc(N)nc(-c3ccccn3)n2)c(N)c1-c1ccccc1` showed an IC50 of 5 µM.
`CC(=O)Nc1ccc(-c2csc(NC(=O)c3ccc([N+](=O)[O-])s3)n2)cc1` was tested, and the IC50 was 0.4 µM.
Compound `CNS(=O)(=O)c1ccccc1Nc1nc(Nc2cc(C)nn2C)ncc1Cl` has an IC50 of 0.25 µM.
In the case of `Cc1nc(C(=O)Nc2ccc3c(c2)OCO3)nn1-c1ccc(Cl)cc1`, the IC50 is reported as 2.5 µM.
For `CCCCNc1nccc(-c2c(-c3ccc(F)cc3)nn3c(N4CCOCC4)cccc23)n1`, the IC50 was > 50 µM (inactive).
With `Cc1nnnn1-c1cccc(C(=O)N2CCC[C@@]3(C)c4ncncc4CCC23)c1` (some centres undefined) the IC50 was 0.4 µM.
With `O=c1[nH]c(NCCCNCc2cc(Br)cc(Br)c2)nc2ccsc12` the IC50 was 16 µM.
`COc1ccnc2[nH]cc(-c3cc(C(=O)N[C@H](CO)c4ccccc4)co3)c12` showed an IC50 of 25 µM.
For `CN(C)S(=O)(=O)c1cccc(C(=O)Nc2nc(-c3ccccn3)cs2)c1`, the IC50 was 1.3 µM.
Work on `CCCCn1nnnc1CSc1nc(C)cc(C)c1C#N` yielded an IC50 of 1.3 µM.
`N#Cc1ccc(S(=O)(=O)N2CCN(Cc3cccc(-c4ccncc4)c3)CC2)cc1` was tested, and the IC50 was > 50 µM (inactive).
With `NS(=O)(=O)c1ccc(CNC(=O)c2ccc([N+](=O)[O-])s2)cc1` the IC50 was 32 µM.
Compound `Cn1c(CC(=O)NNC(=O)c2ccc3ccccc3n2)nc2ccccc21` has an IC50 of 6.3 µM.
In the case of `O=C(NCc1ccc(Cl)cc1)C1CN(C(=O)c2ccc(F)cc2)CCS1` (centres undefined), the IC50 is reported as > 50 µM (inactive).
With `O=S(=O)(c1cccc(CSc2nnc(-c3ccc4c(c3)OCO4)o2)c1)N1CCOCC1` the IC50 was 0.5 µM.
Work on `OCC1CCCCN1c1cc(-c2ccccn2)nc(Nc2ccccc2)n1` (centres undefined) yielded an IC50 of 3.2 µM.
`Cc1nn(-c2ccccc2)nc1CNC(=O)CN(Cc1ccccn1)Cc1ccccn1` was tested, and the IC50 was 7.9 µM.
`CC(C)S(=O)(=O)c1ccc(-c2cnc(N)c3cc(-c4ccnc(N)n4)ccc23)cc1` gave an IC50 of 2 µM.
For `Nc1nc(-c2ccccn2)nc(-n2nc(-c3cccc(C(F)(F)F)c3)cc2N)n1`, the IC50 was 10 µM.
`CC(c1ccccn1)N(C)Cc1nc2ccccc2n1C(C)C` (centres undefined) gave an IC50 of 10 µM.
Work on `O=C(COc1nn(-c2ccccc2)c2ncccc12)NCc1ccccc1` yielded an IC50 of 0.4 µM.
For `Cc1sc(C)c(C(F)(F)F)c1CNCCCNc1cc(=O)c2ccccc2[nH]1`, the IC50 was > 50 µM (inactive).
In the case of `COc1ccc(-c2csc(NC(=O)c3ccc([N+](=O)[O-])s3)n2)cc1`, the IC50 is reported as 3.2 µM.
Compound `CCCn1c(NC(=O)Cc2ccc(Cl)cc2)nc2ccccc21` has an IC50 of 40 µM.
With `CCC(=O)Nc1ccc(-c2nc3ccc(Cl)cc3[nH]2)cc1` the IC50 was > 50 µM (inactive).
`CCOc1ccc(OCC(=O)N2c3ccccc3CC2C(=O)NC)cc1` (centres undefined) was tested, and the IC50 was > 50 µM (inactive).
`Cc1occc1C(=O)Nc1ccccc1C(=O)Nc1nccs1` was tested, and the IC50 was > 50 µM (inactive).
With `N#Cc1ccc(C(=O)Nc2cccc(-c3cccc(CN4CCC(O)CC4)c3)c2)cc1` the IC50 was > 50 µM (inactive).
`Cn1nccc1NC(=O)Cn1ccc(-c2ccncc2)n1` was tested, and the IC50 was > 50 µM (inactive).
For `O=C(NCc1ccc(-n2cccc2)cc1)c1nc(Cn2ccc([N+](=O)[O-])n2)no1`, the IC50 was > 50 µM (inactive).
With `Cc1ccc(Nc2nc(C3CCCN3Cc3ccn[nH]3)cs2)nc1` (centres undefined) the IC50 was 13 µM.
With `COc1ccc(NS(=O)(=O)c2cc(NC(=O)c3ccc([N+](=O)[O-])s3)ccc2OC)cc1` the IC50 was 0.5 µM.
For `COc1ccc2ncc(=O)n(CCN3CC[C@H](NCc4ncc(Cl)c5[nH]ncc45)[C@H](O)C3)c2n1`, the IC50 was > 50 µM (inactive).
For `O=C(Nc1n[nH]c(-c2ccccn2)n1)C1CC1c1ccccc1` (centres undefined), the IC50 was 13 µM.
In the case of `COc1ncc(-c2ccc3nccc(-c4ccncc4)c3c2)cc1NS(=O)(=O)C1CC1`, the IC50 is reported as 1.3 µM.
`N#Cc1c(Oc2cccc(Cl)c2)cccc1[N+](=O)[O-]` showed an IC50 of 7.9 µM.
In the case of `COc1cc(NC(=O)Nc2cccc(CNC(=O)OC3CCCCC3)c2)ccc1-c1cnco1`, the IC50 is reported as > 50 µM (inactive).
`CC(C)(C)C(Cn1ccnc1)NC(=O)c1ccc2nc(C3CC3)oc2c1` (centres undefined) gave an IC50 of 20 µM.
Compound `Oc1c(-c2n[nH]c(Cc3ccc(F)cc3)n2)ncc2cccnc12` has an IC50 of 0.13 µM.
Work on `CNc1nc(C)nc(N2CCc3cc(C(=O)NCc4ccc(-c5ccn[nH]5)cc4Cl)ccc32)n1` yielded an IC50 of 2.5 µM.
Work on `Nc1nc(-c2ccccc2)cc(-c2nc3ncccc3[nH]2)n1` yielded an IC50 of 4 µM.
`O=C(Nc1ncc([N+](=O)[O-])s1)C1CC1` was tested, and the IC50 was 40 µM.
For `COc1ccc(C(=O)[C@H]2C[C@@H]2CN(Cc2ccccn2)Cc2ccccn2)cc1`, the IC50 was 7.9 µM.
In the case of `COc1cc2c(cc1OC)[C@H]1[C@@H](C)c3ccc(OC)c(OC)c3CN1CC2`, the IC50 is reported as 2.5 µM.
`N#CN1CC[C@@H](NC(=O)Nc2ccccc2Oc2ccccc2)C1` gave an IC50 of 3.2 µM.
Work on `c1ccc(-c2nc(NCc3ccco3)c3ccccc3n2)nc1` yielded an IC50 of 3.2 µM.
`Cc1ccc(NC(C)C(=O)Nc2ccc(C#N)cc2)cc1S(=O)(=O)N1CCCCC1` (centres undefined) gave an IC50 of 0.79 µM.
With `c1ccc(-c2nc(NC3CCCC3)c3ccccc3n2)nc1` the IC50 was 4 µM.
For `c1cc(-c2ncc(-c3ccn[nH]3)s2)ccn1`, the IC50 was > 50 µM (inactive).
`Cc1cccnc1CN1CCN(CCCOc2ccc(-c3ccc(C(N)=O)cc3)cc2)CC1` was tested, and the IC50 was > 50 µM (inactive).
Compound `NCc1ccc2c(Cl)cc(Cl)c(O)c2n1` has an IC50 of 6.3 µM.
